What is called IC50 is the concentration that gives 50% inhibition. For orientation: EC50 means the concentration at which the effect is half-maximal. In general, AC50 refers to the midpoint of the concentration-response curve, whichever way the signal moves.

Three molecules from ChEMBL document CHEMBL1201862, “PubChem BioAssay data set” (2004) can be followed below.

Assay [1] is described as follows: HGIII-sPLA2 enzyme inhibition potency – biochemical, QFRET, IC50, dose response (AID 743457).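 Note: green fluorescence rise as the enzyme cleaves BODIPY PC-A2 in liposomes.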
The subject of the next assay is CHO-K1. Description: Counterscreen for antagonists of the orexin 1 receptor (OX1R; HCRTR1): Homogeneous time resolved fluorescence (HTRF)-based cell-based dose response assay to identify antagonists of the parental CHO-K1 cell line. [Related pubchem assays (depositor defined):AID434989, AID435008, AID463079, AID485270, AID492963, AID492964, AID492965, AID493232, AID504699, AID504701]. The class given is functional. The following applies: Cricetulus griseus.

Assay [2] can be described thus: Counterscreen for antagonists of the orexin 1 receptor (OX1R; HCRTR1): Fluorescence-based cell-based high throughput dose response assay to identify antagonists of the parental CHO cell line. [Related pubchem assays (depositor defined):AID434989, AID435008, AID463079, AID485270, AID492963, AID492964, AID492965, AID493232, AID504699, AID504701]. The class given is functional.

The target in assay [3] is T1, Orexin/Hypocretin receptor type 1 (Homo sapiens, UniProt O43613).
T1 sequence (O43613 whole entry): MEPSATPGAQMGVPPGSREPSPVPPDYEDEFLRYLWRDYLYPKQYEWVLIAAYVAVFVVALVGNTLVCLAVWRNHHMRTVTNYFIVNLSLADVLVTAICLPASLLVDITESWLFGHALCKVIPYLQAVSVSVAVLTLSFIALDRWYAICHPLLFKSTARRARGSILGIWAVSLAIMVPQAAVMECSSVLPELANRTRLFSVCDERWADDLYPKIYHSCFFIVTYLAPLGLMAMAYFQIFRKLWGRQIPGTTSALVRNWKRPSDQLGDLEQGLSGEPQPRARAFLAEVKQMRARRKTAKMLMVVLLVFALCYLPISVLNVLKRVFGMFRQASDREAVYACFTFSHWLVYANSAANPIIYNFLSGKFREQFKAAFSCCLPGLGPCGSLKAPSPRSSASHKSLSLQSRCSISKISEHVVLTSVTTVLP
Description: Homogeneous Time Resolved Fluorescence (HTRF)-based cell-based high throughput dose response assay for antagonists of the orexin 1 receptor (OX1R; HCRTR1). [Related pubchem assays (depositor defined):AID434989, AID435008, AID463079, AID485270, AID492963, AID492964, AID492965, AID493232, AID504717, AID504718]. The class given is functional. (In general: In TR-FRET formats the signal depends on donor and acceptor labels being close together.)

The target in assay [4] is T1, Orexin/Hypocretin receptor type 1. Description: Fluorescence-based cell-based high throughput dose response assay for antagonists of the orexin 1 receptor (OX1R; HCRTR1). [Related pubchem assays (depositor defined):AID434989, AID435008, AID463079, AID485270, AID492963, AID492964, AID492965, AID493232, AID504717, AID504718]. The class given is functional.
For a further assay, the target named is T2, X-box-binding protein 1 (Homo sapiens, UniProt P17861).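 Note: confirmatory dose-response counter-screen serving a CHOP assay.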
T2 sequence (P17861 whole entry): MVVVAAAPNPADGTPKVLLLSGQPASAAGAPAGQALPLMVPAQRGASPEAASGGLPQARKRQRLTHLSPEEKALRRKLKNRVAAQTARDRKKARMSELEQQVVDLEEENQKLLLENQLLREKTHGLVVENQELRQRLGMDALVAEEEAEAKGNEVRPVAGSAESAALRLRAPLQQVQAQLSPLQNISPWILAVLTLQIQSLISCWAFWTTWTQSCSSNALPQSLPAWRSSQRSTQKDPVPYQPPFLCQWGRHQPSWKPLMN
The class given is functional, Cricetulus griseus.

In assay [5] the target is T3, Insulin-degrading enzyme (Homo sapiens, UniProt P14735).
T3 sequence (P14735 whole entry): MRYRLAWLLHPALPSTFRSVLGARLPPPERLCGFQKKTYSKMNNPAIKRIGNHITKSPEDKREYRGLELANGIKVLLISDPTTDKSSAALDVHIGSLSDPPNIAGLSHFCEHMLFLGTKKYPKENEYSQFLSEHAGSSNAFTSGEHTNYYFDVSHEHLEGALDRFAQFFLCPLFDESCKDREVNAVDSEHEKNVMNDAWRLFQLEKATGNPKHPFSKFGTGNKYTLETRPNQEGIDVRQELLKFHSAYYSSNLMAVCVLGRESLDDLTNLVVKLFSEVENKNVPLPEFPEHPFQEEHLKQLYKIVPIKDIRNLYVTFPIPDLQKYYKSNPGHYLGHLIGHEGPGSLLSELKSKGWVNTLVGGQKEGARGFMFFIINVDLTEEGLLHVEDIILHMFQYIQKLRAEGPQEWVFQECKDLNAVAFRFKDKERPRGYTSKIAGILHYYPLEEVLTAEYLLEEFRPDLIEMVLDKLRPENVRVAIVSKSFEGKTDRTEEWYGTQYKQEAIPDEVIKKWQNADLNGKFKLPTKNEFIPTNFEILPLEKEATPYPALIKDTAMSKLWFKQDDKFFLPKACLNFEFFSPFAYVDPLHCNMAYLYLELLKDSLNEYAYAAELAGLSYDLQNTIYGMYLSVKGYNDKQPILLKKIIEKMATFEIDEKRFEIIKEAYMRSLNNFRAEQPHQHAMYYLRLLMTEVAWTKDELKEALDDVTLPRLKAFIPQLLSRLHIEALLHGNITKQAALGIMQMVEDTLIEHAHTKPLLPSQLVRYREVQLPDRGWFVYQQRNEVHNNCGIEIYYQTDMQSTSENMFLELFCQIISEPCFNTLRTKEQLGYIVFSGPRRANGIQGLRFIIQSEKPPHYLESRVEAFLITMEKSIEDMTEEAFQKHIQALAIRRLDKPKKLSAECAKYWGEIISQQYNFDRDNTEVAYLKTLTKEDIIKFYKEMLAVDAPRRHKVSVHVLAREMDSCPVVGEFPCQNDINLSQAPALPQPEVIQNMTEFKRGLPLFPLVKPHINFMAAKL
Description: recombinant IDE activation, cell-free – biochemical, fluorescence polarization, counter-screen for IDE activator project, dose response (AID 588681). A general note: In fluorescence polarisation assays a small probe gives low polarisation when free and higher when bound to something large.

Assay [6] deals with T3, Insulin-degrading enzyme. Description: cellular IDE activation of Abeta substrate cleavage – fluorescence polarization, HEK cells, dose response (AID 588439). The class given is functional, cell-based.
The test system of another assay is INS1. Description: INS-1E survival protection against cytokine death – cell-based, luminescence, retest, dose response (AID 449756).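 Note: cell death triggered by IL-1 beta plus TNF-alpha plus IFN-gamma mixture; protective hits raise ATP signal compared with cytokine alone wells.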 The class given is functional. The following applies: Rattus norvegicus.
For assay [7], the system named is HEK293. Description: membrane integrity loss in HEK cells – cell-based, fluorescence, cytotoxicity control for IDE activator project, dose response (AID 588440).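 Note: cytotoxicity by LDH release measuring loss of membrane integrity.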 The class given is functional. The following applies: Homo sapiens.
The subject of assay [8] is HEK293. Description: optical interference in Abeta FP readout, dose response, artefact control for IDE activator project, biochemical, fluorescence polarization (AID 588442). The following applies: Homo sapiens. The class given is functional, cell-based.
Assay [9] addresses T4, Orexin receptor type 2 (Homo sapiens, UniProt O43614).
T4 sequence (O43614 whole entry): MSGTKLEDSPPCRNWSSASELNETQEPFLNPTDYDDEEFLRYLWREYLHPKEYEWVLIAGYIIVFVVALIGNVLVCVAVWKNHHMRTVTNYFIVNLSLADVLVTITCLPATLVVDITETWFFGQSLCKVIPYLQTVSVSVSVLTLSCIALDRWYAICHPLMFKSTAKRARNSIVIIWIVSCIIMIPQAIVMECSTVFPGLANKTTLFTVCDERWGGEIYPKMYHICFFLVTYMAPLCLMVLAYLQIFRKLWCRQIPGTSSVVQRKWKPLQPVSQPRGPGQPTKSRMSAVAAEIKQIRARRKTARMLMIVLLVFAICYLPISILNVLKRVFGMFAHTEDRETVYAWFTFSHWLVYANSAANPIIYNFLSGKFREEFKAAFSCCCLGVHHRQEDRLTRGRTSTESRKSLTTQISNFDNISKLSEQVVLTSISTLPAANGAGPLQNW
Description: Counterscreen assay for antagonists of the orexin 1 receptor (OX1R; HCRTR1): Fluorescence-based cell-based dose response assay for antagonists of the orexin 2 receptor (OX2R; HCRTR2), run by assay provider. The class given is functional. (In general: A counterscreen serves to expose hits that act by an unwanted route or on another target.)

Assay [10] deals with T4, Orexin receptor type 2. Description: Counterscreen assay for antagonists of the orexin 1 receptor (OX1R; HCRTR1): Homogeneous Time Resolved Fluorescence (HTRF)-based cell-based dose response assay for antagonists of the orexin 2 receptor (OX2R; HCRTR2), run by assay provider. The class given is functional.
Assay [11] can be described thus: blockers of HIV-1 envelope-mediated cell-cell fusion – cherry-pick, dose response (AID 652057). The class given is functional, cell-based.
A short description of assay [12]: viability loss in CEM21 cells – cell-based, CellTiter-Glo luminescence, cherry-picked, cytotoxicity control for viral fusion inhibitor project, dose response (AID 652042).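 Note: potency for signal decrease meaning cytotoxicity.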 The class given is functional.
A short description of assay [13]: blockers of HIV-1 ZM109 envelope-driven cell-cell fusion – HeLa effector, CEM target cells, luciferase, cherry-pick, dose response (AID 652058).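 Note: luciferase signal from HIV-1 Env mediated cell-cell fusion of effector and target cells.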 The class given is functional, cell-based.
A short description of assay [14]: off-target signal loss in HeLa-CEM21 co-culture – HeLa F-luc CTL cells, cherry-picked, counter-screen for HIV-1 Env fusion inhibitor project, dose response (AID 652040).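 Note: potency for signal decrease marking cytotoxic or nonspecific inhibition.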 The class given is functional, cell-based.
Assay [15] is described as follows: HIV-1 AD8 envelope cell-cell fusion blockers – cherry-pick, dose response (AID 652062).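 Note: luciferase signal from cell-cell fusion driven by HIV-1 clade B AD8 Env; potency is for inhibitors of fusion seen as a drop in luminescence.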 The class given is functional, cell-based.

The source made the active and inactive calls.

Take `CCCCC(=O)Nc1ccc(C(=O)NNC(=S)NC(=O)c2cccs2)cc1`: the IC50 in assay [1] is 63.5 µM (inactive).

Turning to `CCN(CC)c1ccc(-c2nnc(S)n2-c2ccccc2)cc1`, the IC50 in assay [1] is > 122 µM (inactive).

`COc1ccc(OCc2n(CC(=O)OC3CC(C)CCC3C(C)C)c3ccccc3[n+]2C)cc1.[Cl-]` (centres undefined): the IC50 was > 66.2 µM (inactive) with CHO-K1; 15.3 µM (inactive) in assay [2]; 63.1 µM (inactive) in assay [3]; 8.69 µM (active) in [4]; 17 µM (inactive) in the assay on HEK293 [7]; 8.9 µM (active) on Orexin receptor type 2 [9]. In addition, the IC50 at Orexin receptor type 2 [10] is > 50 µM (inactive). Besides, the “Absolute IC50 (XBP1)” value at X-box-binding protein 1 is 10 µM. In addition, the values for the EC50 on Insulin-degrading enzyme [5], at Insulin-degrading enzyme [6] and in the assay with HEK293 [8] were > 54.7 µM (inactive), 15.5 µM (inactive) and > 54.7 µM (inactive), respectively. The AC50 in the assay with INS1 is 3.9 µM (active); in assay [11], 9.99 µM (active); in [12] it was 9.49 µM (active); in assay [13], 16.4 µM (active); in [14] it was 17.2 µM (active); in assay [15] it was 11 µM (active).
